# Measured values as given in the supplement of paper PMC10307832.
# Legend:
# Experiment in all cases: relative viability (nuclei count vs DMSO), 5 days (fraction); higher = more cells survive
# Adavosertib + OSI-027 = compound: C=CCn1c(=O)c2cnc(Nc3ccc(N4CCN(C)CC4)cc3)nc2n1-c1cccc(C(C)(C)O)n1 [Adavosertib] + COc1cccc2cc(-c3nc([C@H]4CC[C@H](C(=O)O)CC4)n4ncnc(N)c34)[nH]c12 [OSI-027] (partner 0.5 µM)
# Outline: (§1)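 Lung cancer cell lines in 1536-well plates got either a single drug or a fixed anchor-drug dose together with five library-drug doses (not always all listed) in √10 steps, by pin tool, on the day after seeding. Nuclei were counted after 5 days, and relative viability is the treated-to-vehicle ratio of nuclei counts. Values are medians of duplicate plates.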
# Adavosertib + Linsitinib = compound: C=CCn1c(=O)c2cnc(Nc3ccc(N4CCN(C)CC4)cc3)nc2n1-c1cccc(C(C)(C)O)n1 [Adavosertib] + C[C@]1(O)C[C@@H](c2nc(-c3ccc4ccc(-c5ccccc5)nc4c3)c3c(N)nccn32)C1 [Linsitinib] (partner 1 µM)
# Outline: as §1
# Adavosertib + Phenformin = compound: C=CCn1c(=O)c2cnc(Nc3ccc(N4CCN(C)CC4)cc3)nc2n1-c1cccc(C(C)(C)O)n1 [Adavosertib] + N=C(N)NC(=N)NCCc1ccccc1 [Phenformin] (partner 250 µM)
# Outline: as §1
# Nelarabine + Luminespib = compound: COc1nc(N)nc2c1ncn2[C@@H]1O[C@H](CO)[C@@H](O)[C@@H]1O [Nelarabine] + CCNC(=O)c1noc(-c2cc(C(C)C)c(O)cc2O)c1-c1ccc(CN2CCOCC2)cc1 [Luminespib] (partner 0.01 µM)
# Outline: as §1
Cell Line,relative viability (Adavosertib + OSI-027; first compound 0.01 µM),relative viability (Adavosertib + OSI-027; first compound 0.03162 µM),relative viability (Adavosertib + OSI-027; first compound 0.1 µM),relative viability (Adavosertib + OSI-027; first compound 0.3162 µM),relative viability (Adavosertib + Linsitinib; first compound 0.01 µM),relative viability (Adavosertib + Linsitinib; first compound 0.03162 µM),relative viability (Adavosertib + Linsitinib; first compound 0.1 µM),relative viability (Adavosertib + Linsitinib; first compound 0.3162 µM),relative viability (Adavosertib + Phenformin; first compound 0.01 µM),relative viability (Adavosertib + Phenformin; first compound 0.03162 µM),relative viability (Adavosertib + Phenformin; first compound 0.1 µM),relative viability (Adavosertib + Phenformin; first compound 0.3162 µM),relative viability (Nelarabine + Luminespib; first compound 0.01 µM),relative viability (Nelarabine + Luminespib; first compound 0.03162 µM),relative viability (Nelarabine + Luminespib; first compound 0.1 µM),relative viability (Nelarabine + Luminespib; first compound 0.3162 µM),relative viability (Nelarabine + Luminespib; first compound 1 µM)
NCI-H2126,0.569,0.697,0.769,0.727,0.695,0.712,0.703,0.722,0.525,0.538,0.531,0.568,1.04,0.951,0.822,0.892,0.977
HOP-62,0.92,0.907,0.852,0.85,0.981,1.02,1.09,1.03,0.698,0.621,0.802,0.769,1.19,0.736,1,1.1,0.961
NCI-H647,0.635,0.609,0.569,0.26,1.12,1.04,1.28,0.454,0.495,0.533,0.354,0.249,0.177,0.111,0.193,0.128,0.136
NCI-H1793,0.282,0.289,0.26,0.277,0.822,0.765,0.915,0.869,0.356,0.385,0.414,0.273,0.421,0.156,0.201,0.251,0.191
NCI-H2023,0.465,0.35,0.304,0.203,0.638,0.742,0.505,0.392,0.437,0.389,0.358,0.193,1.07,0.596,0.905,0.834,0.7
SW 1573,0.645,0.626,0.882,0.278,0.919,0.864,0.911,0.886,0.384,0.564,0.408,0.324,0.168,0.174,0.164,0.34,0.229
NCI-H727,0.599,0.546,0.523,0.575,0.334,0.249,0.311,0.32,0.543,0.593,0.531,0.565,0.305,0.377,0.351,0.469,0.298
NCI-H441,0.758,0.56,0.471,0.425,0.552,0.5,0.496,0.329,0.876,0.78,1.09,0.765,0.306,0.372,0.286,0.294,0.268
LCLC-97TM1,0.484,0.459,0.584,0.49,–,0.19,0.17,0.169,0.428,0.397,0.488,0.417,0.912,0.688,0.856,0.713,0.78
